Results published in US20240165281A1, “DUAL MODE RADIOTRACER AND THERAPEUTICS” (Technische Universität München, priority 2021, published 2024).
Like-named read-outs stand apart in the source and are kept apart here.

Key:
PSMA = molecular target: T1, PSMA (Homo sapiens, UniProt Q04609); experiment: PSMA affinity (IC50), competition with [125I]I-BA-KuE on LNCaP cells; type: binding; conditions: natLu complex, on ice 60 min
T1 construct: PSMA-positive LNCAP cells (300265; Cell Lines Service, Eppelheim, Germany); host or cells: LNCaP cells
Experimental: A mixture of trypsin and EDTA (0.05%, 0.02%) in PBS (Biochrom) was used in order to harvest cells. Cells were counted with a Neubauer hemocytometer (Paul Marienfeld, Lauda-Königshofen, Germany).
Affinity Determinations (IC50)
In the case of metal-complexed ligands, the crude reaction mixture was diluted analogously, without further purification. Cells were harvested 24±2 hours prior to the experiment and seeded in 24-well plates (1.5×10^5 cells in 1 mL/well). […] The media of both steps were combined in one fraction and represent the amount of free radioligand. Afterwards, the cells were lysed with 250 μL of 1 M aqueous NaOH for at least 10 min. After a washing step (250 μL of 1 M NaOH), both fractions, representing the amount of bound ligand, were united. Quantification of all collected fractions was accomplished in a γ-counter. PSMA-affinity determinations were carried out at least three times per ligand.

[1] = Apparent molecular weight (MWapp)
[2] = molecular target: T2, Human Serum Albumin (HSA) (Homo sapiens, UniProt P02768); experiment: Human serum albumin (HSA) binding by high performance affinity chromatography (HPAC); type: in vitro ADME; conditions: Chiralpak HSA column
T2 construct: purchased Daicel H13H-2433
Experimental: Determination of Human Serum Albumin (HSA) Binding by High Performance Affinity Chromatography (HPAC)
HSA binding of the PSMA-addressing ligands was determined according to a previously published procedure via HPLC (Valko, K.; Nunhuck, S.; Bevan, C.; Abraham, M. H.; Reynolds, D. P. Journal of pharmaceutical sciences 2003, 92, 2236-2248). A Chiralpak HSA column (50×3 mm, 5 μm, H13H-2433, Daicel, Tokyo, Japan) was used at a constant flow rate of 0.5 mL/min at rt. Mobile phase A was a freshly prepared 50 mM aqueous solution of NH4OAc (pH 6.9) and mobile phase B was isopropanol (HPLC grade, VWR). The applied gradient for all experiments was 100% A (0 to 3 min), followed by 80% A (3 to 40 min). Prior to the experiment, the column was calibrated using nine reference substances with a HSA binding, known from literature, in the range of 13 to 99% (Valko, K.; Nunhuck, S.; Bevan, C.; Abraham, M. H.; Reynolds, D. P. Journal of pharmaceutical sciences 2003, 92, 2236-2248; Yamazaki, K.; Kanaoka, M. Journal of Pharmaceutical sciences 2004, 93, 1480-1494). All substances, including the examined PSMA ligands, were dissolved in a 1:1 mixture (v/v) of isopropanol and a 50 mM aqueous solution of NH4OAc (pH6.9) with a final concentration of 0.5 mg/mL. Non-linear regression was established with the OriginPro 2016G software (Northampton, United States) (FIG. 8).

LNCaP cells = experiment: Internalization studies in LNCaP cells; type: cell-based; conditions: 37° C., 60 min
Experimental: PSMA-positive LNCAP cells (300265; Cell Lines Service, Eppelheim, Germany) were cultivated in Dulbecco modified Eagle medium/Nutrition Mixture F-12 with Glutamax (1:1) (DMEM-F12, Biochrom, Berlin, Germany) supplemented with fetal bovine serum (10%, FBS Zellkultur, Berlin, Germany) and kept at 37° C. in a humidified CO2 atmosphere (5%). A mixture of trypsin and EDTA (0.05%, 0.02%) in PBS (Biochrom) was used in order to harvest cells. Cells were counted with a Neubauer hemocytometer (Paul Marienfeld, Lauda-Königshofen, Germany).
For internalization studies, LNCaP cells were harvested 24±2 hours before the experiment and seeded in poly-L-lysine coated 24-well plates (1.25×10^5 cells in 1 mL/well, Greiner Bio-One, Kremsmünster, Austria). After removal of the culture medium, the cells were washed once with 500 μL DMEM-F12 (5% BSA) and left to equilibrate for at least 15 min at 37° C. in […] DMEM-F12 (5% BSA). Each well was treated with either 25 μL of either DMEM-F12 (5% BSA, control) or 25 μL of a 100 μM PMPA (2-(Phosphonomethyl)-pentandioic acid, Tocris Bioscience, Bristol, UK) solution in PBS, for blockade. Next, 25 μL of the radioactive-labelled PSMA inhibitor (10.0 nM in DMEM-F12 (5% BSA)) was added and the cells were incubated at 37° C. for 60 min. The experiment was terminated by placing the 24-well plate on ice for 3 min and consecutive removal of the medium. Each well was carefully washed with 250 μL of ice-cold HBSS. Both fractions from the first steps, representing the amount of free radioligand, were combined. Removal of surface bound activity was accomplished by incubation of the cells with 250 μL of ice-cold PMPA (10 μM in PBS) solution for 5 min and rinsed again with another 250 μL of ice-cold PBS. The internalized activity was determined by incubation of the cells in 250 μL […] aqueous NaOH for at least 10 min. The obtained fractions were combined with those of the subsequent wash step with 250 μL 1 M aqueous NaOH. Each experiment (control and blockade) was performed in triplicate. Free, surface bound and internalized activity was quantified in a y-counter. All internalization studies were accompanied by external reference studies, using ([^125I]I-BA)KuE (c=0.2 nM), which were performed analogously. Data were corrected for non-specific binding and normalized to the specific-internalization observed for the radioiodinated reference compound.

[3] = test system: LNCaP tumor-bearing male CB-17 SCID mice; experiment: Biodistribution studies 24 h p.i.; conditions: for Kidneys (24 h) / Tumor (24 h) / T/K-ratio: Table 1; for T/K-ratio: tumor/kidney; for In vivo biodistribution (24 h p.i.) blood / In vivo biodistribution (24 h p.i.) kidney / In vivo biodistribution (24 h p.i.) tumor: Table 6; for uptake in adrenals / uptake in blood / uptake in bone / uptake in heart / uptake in intestine / uptake in kidney / uptake in liver / uptake in lung / uptake in muscle / uptake in pancreas / uptake in parotid gl. / uptake in spleen / uptake in stomach / uptake in submand. gl. / uptake in tumor: mean
Experimental: Approximately 3-7 MBq (0.1-0.2 nmol) of the radioactive-labelled PSMA inhibitors were injected into the tail vein of LNCaP tumor-bearing male CB-17 SCID mice and sacrificed after 24 h post injection. Selected organs were removed, weighted and measured in a γ-counter. Results are all decay corrected and given in % injected dose per gram of tissue (% iD/g). Tumor-to-organ ratios are calculated from animals' individual ratios and are given as mean±standard deviation.

[4] = Octanol-water partition coefficient (log D7.4); type: physicochemical; conditions: PBS pH 7.4 / n-octanol, 177Lu-labelled
Experimental: Octanol-Water Partition Coefficient (log D7.4)
Approximately 1 MBq of the labelled tracer was dissolved in 1 mL of a 1:1 mixture (v/v) of PBS (pH 7.4) and n-octanol in a reaction vial (1.5 mL). After vigorous mixing of the suspension for 3 minutes at room temperature, the vial was centrifuged at 15000 g for 3 minutes (Biofuge 15, Heraus Sepatech, Osterode, Germany) and 100 μL aliquots of both layers were measured in a gamma counter. The experiment was repeated at least six times.

T2 sequence (P02768 25-609): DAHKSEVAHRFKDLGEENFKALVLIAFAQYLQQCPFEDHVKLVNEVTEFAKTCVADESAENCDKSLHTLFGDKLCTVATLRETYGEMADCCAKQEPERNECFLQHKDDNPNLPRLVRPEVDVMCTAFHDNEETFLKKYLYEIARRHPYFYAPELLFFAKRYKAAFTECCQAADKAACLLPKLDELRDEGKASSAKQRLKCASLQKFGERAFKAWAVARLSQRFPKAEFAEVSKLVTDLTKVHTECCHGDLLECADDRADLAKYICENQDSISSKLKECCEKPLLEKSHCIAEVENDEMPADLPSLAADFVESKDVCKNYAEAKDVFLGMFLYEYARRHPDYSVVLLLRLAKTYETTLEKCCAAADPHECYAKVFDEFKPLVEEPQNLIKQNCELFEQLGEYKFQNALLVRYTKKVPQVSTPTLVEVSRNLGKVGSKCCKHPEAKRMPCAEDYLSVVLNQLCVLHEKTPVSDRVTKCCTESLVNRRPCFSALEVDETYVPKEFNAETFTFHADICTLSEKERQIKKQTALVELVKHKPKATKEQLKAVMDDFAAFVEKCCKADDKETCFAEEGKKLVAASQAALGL
T1 sequence (Q04609 whole entry): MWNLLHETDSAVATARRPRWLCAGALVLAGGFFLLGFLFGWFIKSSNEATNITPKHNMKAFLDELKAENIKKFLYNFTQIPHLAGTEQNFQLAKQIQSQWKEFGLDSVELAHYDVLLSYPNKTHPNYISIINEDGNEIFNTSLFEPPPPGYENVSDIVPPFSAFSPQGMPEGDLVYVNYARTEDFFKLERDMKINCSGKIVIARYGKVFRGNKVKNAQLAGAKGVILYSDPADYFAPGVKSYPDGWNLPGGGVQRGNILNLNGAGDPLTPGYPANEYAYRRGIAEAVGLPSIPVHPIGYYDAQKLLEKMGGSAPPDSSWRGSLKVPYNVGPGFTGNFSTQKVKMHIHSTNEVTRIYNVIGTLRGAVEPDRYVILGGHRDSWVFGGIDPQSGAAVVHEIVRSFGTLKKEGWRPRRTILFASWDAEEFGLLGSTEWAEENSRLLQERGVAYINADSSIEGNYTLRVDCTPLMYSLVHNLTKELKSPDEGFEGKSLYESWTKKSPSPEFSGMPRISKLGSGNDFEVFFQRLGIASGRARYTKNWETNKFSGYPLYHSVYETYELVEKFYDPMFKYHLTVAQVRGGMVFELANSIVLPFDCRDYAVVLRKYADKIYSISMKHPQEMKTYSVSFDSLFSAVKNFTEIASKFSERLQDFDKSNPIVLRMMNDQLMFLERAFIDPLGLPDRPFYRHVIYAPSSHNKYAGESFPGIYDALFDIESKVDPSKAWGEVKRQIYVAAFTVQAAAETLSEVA

CC(C)(C)[Si](F)(c1ccc(C(=O)NC[C@@H](NC(=O)CC[C@@H](C(=O)O)N2CCN(CC(=O)O)CCN(CC(=O)O)CCN(CC(=O)O)CC2)C(=O)N[C@H](CCCCNC(=O)CCC(=O)NCCC[C@@H](NC(=O)CC[C@H](NC(=O)N[C@@H](CCC(=O)O)C(=O)O)C(=O)O)C(=O)O)C(=O)O)cc1)C(C)(C)C [rhPSMA-7.3, reference compound]
IC50 (PSMA; read-out: IC50): 3.29 ± 1 nM
MWapp [1]: 30.4 kDa
HSA (HPAC) [2]: 98.6%
Internalization (LNCaP cells; normalized to ([125I]I-BA)KuE): 184 ± 12 % IBA-KuE
Kidneys (24 h) [3]: 1.4 ± 0.4 % iD/g
Tumor (24 h) [3]: 7.5 ± 0.9 % iD/g
T/K-ratio [3]: 5.17
logD7.4 [4]: −4.12 ± 0.11^

CC(C)(C)[Si](F)(c1ccc(C(=O)NCC(NC(=O)CCC(C(=O)O)N2CCN(CC(=O)O)CCN(CC(=O)O)CCN(CC(=O)O)CC2)C(=O)NC(CN)C(=O)NCCC(=O)NCCC(=O)NCCCC(NC(=O)CCC(NC(=O)NC(CCC(=O)O)C(=O)O)C(=O)O)C(=O)O)cc1)C(C)(C)C (stereo not drawn) [Compound 2C011]
IC50 (PSMA): 6.08 ± 0.16 nM
MWapp [1]: 18.9 kDa
HSA (HPAC) [2]: 89.8%
Internalization (LNCaP cells; normalized to reference): 163.2 ± 6.91 % IBA
In vivo biodistribution (24 h p.i.) blood [3]: 0.0042 ± 0.0019 % iA/g
In vivo biodistribution (24 h p.i.) kidney [3]: 2.1 ± 0.49 % iA/g
In vivo biodistribution (24 h p.i.) tumor [3]: 11.86 ± 0.75 % iA/g
uptake in adrenals [3]: 0.1488 % iD/g
uptake in blood [3]: 0.0042 % iD/g
uptake in bone [3]: 0.0363 % iD/g
uptake in heart [3]: 0.0254 % iD/g
uptake in intestine [3]: 0.2229 % iD/g
uptake in kidney [3]: 2.0983 % iD/g
uptake in liver [3]: 0.2848 % iD/g
uptake in lung [3]: 0.0469 % iD/g
uptake in muscle [3]: 0.0067 % iD/g
uptake in pancreas [3]: 0.0264 % iD/g
uptake in parotid gl. [3]: 0.0857 % iD/g
uptake in spleen [3]: 0.3218 % iD/g
uptake in stomach [3]: 0.0829 % iD/g
uptake in submand. gl. [3]: 0.052 % iD/g
uptake in tumor [3]: 11.8594 % iD/g
logD7.4 [4]: −2.88 ± 0.06

CC(C)(C)[Si](F)(c1ccc(C(=O)NC[C@@H](NC(=O)[C@@H](CCCNC(N)=O)NC(=O)CC[C@H](C(=O)O)N2CCN(CC(=O)O)CCN(CC(=O)O)CCN(CC(=O)O)CC2)C(=O)NCCCCCC(=O)NCCC[C@@H](NC(=O)CC[C@H](NC(=O)N[C@@H](CCC(=O)O)C(=O)O)C(=O)O)C(=O)O)cc1)C(C)(C)C [Compound 2C015]
IC50 (PSMA; read-out: IC50): 3.99 ± 0.74 nM
MWapp [1]: 18.9 kDa
HSA (HPAC) [2]: 95.0%
Internalization (LNCaP cells; normalized to reference): 226 ± 10 % IBA
In vivo biodistribution (24 h p.i.) blood [3]: 0.0007 ± 0.0005 % iA/g
In vivo biodistribution (24 h p.i.) kidney [3]: 2.23 ± 1.29 % iA/g
In vivo biodistribution (24 h p.i.) tumor [3]: 8.98 ± 2.32 % iA/g
uptake in adrenals [3]: 0.1013 % iD/g
uptake in blood [3]: 0.0007 % iD/g
uptake in bone [3]: 0.0223 % iD/g
uptake in heart [3]: 0.0237 % iD/g
uptake in intestine [3]: 0.1103 % iD/g
uptake in kidney [3]: 2.2339 % iD/g
uptake in liver [3]: 0.164 % iD/g
uptake in lung [3]: 0.0468 % iD/g
uptake in muscle [3]: 0.0062 % iD/g
uptake in pancreas [3]: 0.0212 % iD/g
uptake in parotid gl. [3]: 0.0674 % iD/g
uptake in spleen [3]: 0.2671 % iD/g
uptake in stomach [3]: 0.036 % iD/g
uptake in submand. gl. [3]: 0.0389 % iD/g
uptake in tumor [3]: 8.9821 % iD/g
logD7.4 [4]: −3.40 ± 0.10

O=C(O)CC[C@H](NC(=O)N[C@@H](CCCCNC(=O)[C@H](Cc1ccc2ccccc2c1)NC(=O)[C@H]1CC[C@H](CNC(=O)CN2CCN(CC(=O)O)CCN(CC(=O)O)CCN(CC(=O)O)CC2)CC1)C(=O)O)C(=O)O [PSMA-617, reference compound]
IC50 (PSMA; read-out: IC50): 3.3 ± 0.2 nM
MWapp [1]: 13.7 kDa
HSA (HPAC) [2]: 84.9%
Internalization (LNCaP cells; normalized to ([125I]I-BA)KuE): 203 ± 10 % IBA-KuE
Kidneys (24 h) [3]: 9.8 ± 2.7 % iD/g
Tumor (24 h) [3]: 11.6 ± 2.2 % iD/g
T/K-ratio [3]: 1.24 ± 0.29
logD7.4 [4]: −4.10

PSMA-617 [reference compound]
uptake in adrenals [3]: 0.1910 % iD/g
uptake in blood [3]: 0.0056 % iD/g
uptake in bone [3]: 0.0267 % iD/g
uptake in heart [3]: 0.0119 % iD/g
uptake in intestine [3]: 0.1185 % iD/g
uptake in kidney [3]: 1.4421 % iD/g
uptake in liver [3]: 0.1167 % iD/g
uptake in lung [3]: 0.0393 % iD/g
uptake in muscle [3]: 0.0092 % iD/g
uptake in pancreas [3]: 0.0106 % iD/g
uptake in spleen [3]: 0.0812 % iD/g
uptake in stomach [3]: 0.0201 % iD/g
uptake in tumor [3]: 7.4568 % iD/g
tumor-to-organ ratio adrenals ([3]; n = 4, mean): 43.54
tumor-to-organ ratio blood ([3]; n = 4, mean): 1423.84
tumor-to-organ ratio bone ([3]; n = 4, mean): 471.67
tumor-to-organ ratio heart ([3]; n = 4, mean): 704.01
tumor-to-organ ratio intestine ([3]; n = 4, mean): 90.33
tumor-to-organ ratio kidney ([3]; n = 4, mean): 5.85
tumor-to-organ ratio liver ([3]; n = 4, mean): 91.22
tumor-to-organ ratio lung ([3]; n = 4, mean): 210.40
tumor-to-organ ratio muscle ([3]; n = 4, mean): 855.38
tumor-to-organ ratio pancreas ([3]; n = 4, mean): 798.52
tumor-to-organ ratio spleen ([3]; n = 4, mean): 93.28
tumor-to-organ ratio stomach ([3]; n = 4, mean): 375.80
